Test results as given in patent US4117148A, “2,9-Dioxatricyclo [4,3,1,0,3,7] decane derivatives, processes for their preparation and pharmaceutical compositions thereof” (Kali-Chemie Pharma GmbH., priority 1977, dated 1978).
Read-outs that look alike come from different tables or passages of the source.

What was measured:
rat's paw = experiment: Randall-Selitto-Test, pressure pain threshold in the rat's paw (antiphlogistic/analgesic); format: in vivo; conditions: for ED50: Rattus norvegicus, sc
[1] = tested on: phenyl benzoquinone syndrome in mice; experiment: Phenyl benzoquinone syndrome (writhing test), analgesic activity; format: in vivo, mouse; conditions: for ED50: Mus musculus, po, read-out: Analgesic activity, inhibition of PBC-syndrome, ED50
[2] = Acute toxicity, LD50 after i.p. administration; format: in vivo; conditions: mouse, in vivo, ip, mice
Procedure: (§1) The toxicity of the 3-azidomethyl-2,9-dioxatricyclo[4,3,1,0^3,7 ] decanes of the formula (I) is extremely low. The LD50 in mice is in the range of between about 500 and about 700 mg/kg, when determined after i.p. administration of the compounds.

mice = experiment: Acute toxicity, LD50 after i.p. administration; format: in vivo
Procedure: as §1

[3] = normal paw, read-out: Randall Selitto-test ED50, normal paw
[4] = oedema bearing paw, read-out: Randall Selitto-test ED50, oedema bearing paw

CC(=O)Oc1ccccc1C(=O)O [Apsirin, reference compound]
ED50 (rat's paw; [3]): > 700 mg/kg | ED50 (rat's paw; [4]): 440 mg/kg | ED50 [1]: 240 mg/kg

COc1ccc2c(c1)c(CC(=O)O)c(C)n2C(=O)c1ccc(Cl)cc1 [Indomethazine, reference compound]
ED50 (rat's paw; [3]): 250 mg/kg | ED50 (rat's paw; [4]): 64 mg/kg

COc1ccc2cc([C@H](C)C(=O)O)ccc2c1 [Naproxene, reference compound]
ED50 (rat's paw; [3]): 250 mg/kg | ED50 (rat's paw; [4]): 147 mg/kg | ED50 ([1]; mouse, p.o.): 30 mg/kg

CCCCC1C(=O)N(c2ccccc2)N(c2ccccc2)C1=O [Phenylbutazone, reference compound]
ED50 (rat's paw; [3]): > 100 mg/kg | ED50 (rat's paw; [4]): 58 mg/kg | ED50 ([1]; mouse, p.o.): > 30 mg/kg

COC1OC2OC3(CN=[N+]=[N-])C(OC(C)=O)CC(C2C)C13 (stereo not drawn) [X, 3-azidomethyl-4β-acetoxy-8-methoxy-10β-methyl-2,9-DTD]
ED50 (rat's paw; [3]): > 32 mg/kg | Randall Selitto-test ED50, oedema bearing paw (rat's paw; s.c., oedema bearing paw): > 32 mg/kg | Analgesic activity, inhibition of PBC-syndrome, ED50 ([1]; mouse, p.o.): ~ 10 mg/kg | LD50 [2]: 739 mg/kg

COC1OC2OC3(CN=[N+]=[N-])C(=O)CC(C2C)C13 (stereo not drawn) [XVIII, 3-azidomethyl-8-methoxy-10β-methyl-2,9-DTD-4-one]
ED50 (rat's paw; [3]): > 100 mg/kg | ED50 (rat's paw; [4]): > 100 mg/kg | ED50 ([1]; mouse, p.o.): < 56 mg/kg | LD50 [2]: 632 mg/kg

COC1OC2OC3(CN=[N+]=[N-])C(O)CC(C2C)C13 (stereo not drawn) [XXII, 3-azidomethyl-4α-hydroxy-8-methoxy-10β-methyl-2,9-DTD]
ED50 (rat's paw; [3]): > 32 mg/kg | ED50 (rat's paw; [4]): > 32 mg/kg | ED50 ([1]; mouse, p.o.): 18.5 mg/kg | LD50 [2]: 571 mg/kg

C=C1C2OC(OC)C3C1CC(OC(C)=O)C3(CN=[N+]=[N-])O2 (stereo not drawn) [XXV, 3-azidomethyl-4α-acetoxy-8-methoxy-10-methylene-2,9-DTD]
ED50 (rat's paw; [3]): 100 mg/kg | ED50 (rat's paw; [4]): 100 mg/kg | ED50 ([1]; mouse, p.o.): ~56 mg/kg

COC1OC2OC3(CN=[N+]=[N-])C(OC(C)=O)CC(C2C)C13 (stereo not drawn) [XXVI, 3-azidomethyl-4α-acetoxy-8-methoxy-10β-methyl-2,9-DTD]
Randall Selitto-test ED50, normal paw (rat's paw; s.c., normal paw): ~ 32 mg/kg | Randall Selitto-test ED50, oedema bearing paw (rat's paw; s.c., oedema bearing paw): 15 mg/kg | Analgesic activity, inhibition of PBC-syndrome, ED50 ([1]; mouse, p.o.): < 3.2 mg/kg | LD50 (mice): 574 mg/kg
